Measured values from patent US20200031793A1, “Synthesis of Thapsigargin, Nortrilobolide, and Analogs Thereof” (priority 2017, published 2020).

Assays:
[1] = system: sarco/endoplasmic reticulum Ca^2+-ATPases (SERCAs); conditions: cited from earlier work; for inhibition of sarco/endoplasmic reticulum Ca^2+-ATPases (SERCAs): qualitative statement, no own test

Row | melting point [°C] | Compound | inhibition of sarco/endoplasmic reticulum Ca^2+-ATPases (SERCAs) [1] | inhibition of Sarco/endoplasmic reticulum Ca^2+-ATPase compared with thapsigargin (1) ([1]; relative to 1 (thapsigargin))
1 | 176.1 to 178.5 | CC1=C2[C@@H]3OC(=O)[C@@](C)(O[Si](C)(C)C)[C@@]3(O)[C@H](OCc3ccccc3)C[C@](C)(O)[C@H]2C[C@H]1O[Si](C)(C)C(C)(C)C |  | 
2 |  | C/C=C(/C)C(=O)O[C@@H]1C[C@H]2C(=C1C)[C@@H]1OC(=O)[C@@](C)(O)[C@@]1(O)[C@@H](OC(=O)CCC)C[C@]2(C)OC(C)=O [nortrilobolide] | potent inhibitor | equipotent inhibition
3 |  | thapsigargin | highly selective subnanomolar inhibitor | 
